Results taken from paper PMC3897212 (Journal of pharmacokinetics and pharmacodynamics, 2013).
Read-outs that look alike come from different tables or passages of the source. Marks after values point to notes of the source that are not given here.

How the values were obtained:
[1] = tested on: brain metastases from HER2-positive breast cancer; details: human patients with brain metastases from HER2-positive breast cancer; cited from earlier work
[2] = Time course tissue distribution / pharmacokinetic study in mice; format: in vivo, female FVB mice; details: mouse; for AUC(0-t) / half-life: female, FVB, po
[3] = tested on: albumin and alpha-1 acid glycoprotein; details: cited from earlier work
[4] = tested on: metastatic breast cancer cells in the brains of mice; details: cited from earlier work
[5] = Mouse PBPK model of lapatinib
[6] = Human PBPK model of lapatinib
[7] = human plasma, cited from earlier work
[8] = mice; owing to ABCB1- and ABCB2-mediated efflux; cited from earlier work
[9] = patients administered lapatinib; cited from earlier work
[10] = Single 100 mg dose plasma pharmacokinetic study in healthy subjects; format: in vivo; details: human, po
CYP3A = details: cited from earlier work
[11] = slowly perfused tissue, 30 mg/kg
[12] = slowly perfused tissue, 60 mg/kg
[13] = slowly perfused tissue, 90 mg/kg
[14] = first-order, parameter estimate (CV%) fitted to 60 mg/kg cohort
[15] = parameter estimate (CV%) fitted to 60 mg/kg cohort

Q: With CS(=O)(=O)CCNCc1ccc(-c2ccc3ncnc(Nc4ccc(OCc5cccc(F)c5)c(Cl)c4)c3c2)o1 [lapatinib, N-{3-chloro-4-[(3-fluorobenzyl)oxy]phenyl}-6-[5-({[2-(methylsulfonyl)ethyl]amino}methyl)-2-furyl]-4-quinazolinamine] as the molecule, how does the CNS antitumor activity [1] read?
A: modest CNS antitumor activity

Q: What about the AUC(0-t) ([2]; brain, 30 mg/kg) of the same molecule?
A: 0.441 µM·h

Q: What about the AUC(0-t) ([2]; brain, 60 mg/kg) of the same molecule?
A: 1.31 µM·h

Q: What about the half-life ([2]; brain, 60 mg/kg) of the same molecule?
A: 3.12 h

Q: And the AUC(0-t) ([2]; brain, 90 mg/kg)?
A: 2.26 µM·h

Q: What about the half-life ([2]; brain, 90 mg/kg) of the same molecule?
A: 1.76 h

Q: What about the AUC(0-t) ([2]; heart, 30 mg/kg) of the same molecule?
A: 7.16 µM·h

Q: What about the half-life ([2]; heart, 30 mg/kg) of the same molecule?
A: 2.59 h

Q: And the AUC(0-t) ([2]; heart, 60 mg/kg)?
A: 26.5 µM·h

Q: And the half-life ([2]; heart, 60 mg/kg)?
A: 3.05 h

Q: What about the AUC(0-t) ([2]; heart, 90 mg/kg) of the same molecule?
A: 55.2 µM·h

Q: And the half-life ([2]; heart, 90 mg/kg)?
A: 2.32 h

Q: And the AUC(0-t) ([2]; intestine, 30 mg/kg)?
A: 79.9 µM·h

Q: What about the half-life ([2]; intestine, 30 mg/kg) of the same molecule?
A: 2.79 h

Q: And the AUC(0-t) ([2]; intestine, 60 mg/kg)?
A: 235 µM·h

Q: And the half-life ([2]; intestine, 60 mg/kg)?
A: 3.05 h

Q: And the AUC(0-t) ([2]; intestine, 90 mg/kg)?
A: 260 µM·h

Q: And the half-life ([2]; intestine, 90 mg/kg)?
A: 2.55 h

Q: What about the AUC(0-t) ([2]; kidney, 30 mg/kg) of the same molecule?
A: 50.4 µM·h

Q: What about the half-life ([2]; kidney, 30 mg/kg) of the same molecule?
A: 2.53 h

Q: What about the AUC(0-t) ([2]; kidney, 60 mg/kg) of the same molecule?
A: 138 µM·h

Q: And the half-life ([2]; kidney, 60 mg/kg)?
A: 3.57 h

Q: And the AUC(0-t) ([2]; kidney, 90 mg/kg)?
A: 227 µM·h

Q: What about the half-life ([2]; kidney, 90 mg/kg) of the same molecule?
A: 2.51 h

Q: And the AUC(0-t) ([2]; liver, 30 mg/kg)?
A: 84.9 µM·h

Q: And the half-life ([2]; liver, 30 mg/kg)?
A: 2.48 h

Q: And the half-life ([2]; liver, 60 mg/kg)?
A: 2.75 h

Q: What about the AUC(0-t) ([2]; liver, 90 mg/kg) of the same molecule?
A: 261 µM·h

Q: What about the half-life ([2]; liver, 90 mg/kg) of the same molecule?
A: 1.91 h

Q: And the AUC(0-t) ([2]; lung, 30 mg/kg)?
A: 92.4 µM·h

Q: What about the half-life ([2]; lung, 30 mg/kg) of the same molecule?
A: 2.39 h

Q: What about the half-life ([2]; lung, 60 mg/kg) of the same molecule?
A: 3.04 h

Q: What about the AUC(0-t) ([2]; lung, 90 mg/kg) of the same molecule?
A: 623 µM·h

Q: What about the half-life ([2]; lung, 90 mg/kg) of the same molecule?
A: 1.72 h

Q: What about the AUC(0-t) ([2]; plasma, 30 mg/kg) of the same molecule?
A: 12 µM·h

Q: What about the half-life ([2]; plasma, 30 mg/kg) of the same molecule?
A: 2.73 h

Q: And the AUC(0-t) ([2]; plasma, 60 mg/kg)?
A: 24.1 µM·h

Q: And the half-life ([2]; plasma, 60 mg/kg)?
A: 3.42 h

Q: And the AUC(0-t) ([2]; plasma, 90 mg/kg)?
A: 48.2 µM·h

Q: And the half-life ([2]; plasma, 90 mg/kg)?
A: 2.36 h

Q: What about the AUC(0-t) [2, 11] of the same molecule?
A: 2.74 µM·h

Q: What about the half-life [2, 11] of the same molecule?
A: 3.88 h

Q: And the AUC(0-t) [2, 12]?
A: 9.52 µM·h

Q: And the half-life [2, 12]?
A: 2.57 h

Q: And the AUC(0-t) [2, 13]?
A: 18.9 µM·h

Q: What about the half-life [2, 13] of the same molecule?
A: 1.55 h

Q: What about the “dose linearity of pharmacokinetics” value ([2]; all tissues, 30–90 mg/kg dose range, dose-dependent increase in AUC0–16 h and constant CL) of the same molecule?
A: linear pharmacokinetics

Q: And the “bound to albumin and alpha-1 acid glycoprotein” value [3]?
A: > 99%

Q: And the Percent unbound ([3]; plasma, value set in PBPK model)?
A: 1%

Q: What about the “unbound fraction of drug in the plasma” value ([3]; value set in PBPK model) of the same molecule?
A: 0.01

Q: What about the “burden of metastatic breast cancer cells in the brain” value [4] of the same molecule?
A: reduce the burden of metastatic breast cancer cells in the brains of mice

Q: What about the “Metabolism rate constant Intestine” value ([5]; calculated as 2 % of liver metabolism) of the same molecule?
A: 2.5 ^e h^−1

Q: And the “Absorption rate constant Lumen → Intestine” value [5, 14]?
A: 0.237 (2) h^−1

Q: And the “Metabolism rate constant Liver” value [5, 14]?
A: 127 (13) h^−1

Q: And the “Partition coefficient Brain:plasma” value [5, 15]?
A: 10 (19) Ratio

Q: And the “Partition coefficient Intestine:plasma” value [5, 15]?
A: 531 (31) Ratio

Q: And the “Partition coefficient Kidney:plasma” value [5, 15]?
A: 1,064 (18) Ratio

Q: What about the “Partition coefficient Liver:plasma” value [5, 15] of the same molecule?
A: 12 (20) Ratio

Q: What about the “Partition coefficient Lung:plasma” value [5, 15] of the same molecule?
A: 1,643 (19) Ratio

Q: And the “Partition coefficient Slowly perfused:plasma” value [5, 15]?
A: 65 (20) Ratio

Q: And the “Partition coefficient Brain:plasma” value ([6]; human PBPK model parameter)?
A: 10 Ratio

Q: What about the “Partition coefficient Intestine:plasma” value ([6]; human PBPK model parameter) of the same molecule?
A: 531 Ratio

Q: What about the “Partition coefficient Kidney:plasma” value ([6]; human PBPK model parameter) of the same molecule?
A: 1,064 Ratio

Q: And the “Partition coefficient Liver:plasma” value ([6]; human PBPK model parameter)?
A: 12 Ratio

Q: And the “Partition coefficient Lung:plasma” value ([6]; human PBPK model parameter)?
A: 1,643 Ratio

Q: What about the “Partition coefficient Slowly perfused:plasma” value ([6]; human PBPK model parameter) of the same molecule?
A: 65 Ratio

Q: What about the “Metabolism rate constant Intestine” value ([6]; human, calculated as 1.3 % of liver metabolism) of the same molecule?
A: 0.975 ^f h^−1

Q: And the “Observed Tmax” value ([7]; 25 mg multiple dose, healthy, fasted, median (range))?
A: 2.7 (2.5–4.0) ^e h

Q: And the “Observed Tmax” value ([7]; 100 mg multiple dose, healthy, fasted, median (range))?
A: 3.0 (2.0–6.0) ^e h

Q: And the “Observed Tmax” value ([7]; 175 mg single dose, healthy, fasted, median (range))?
A: 3.0 (2.0–4.0) ^f h

Q: And the “Observed Tmax” value ([7]; 1,200 mg multiple dose, cancer, fasted, median (95 % CI))?
A: 3.6 (3.0–7.9) ^f h

Q: And the “Observed Tmax” value ([7]; 1,200 mg single dose, cancer, fasted, median (95 % CI))?
A: 3.5 (2.1–6.0) ^g h

Q: What about the “Observed Tmax” value ([7]; 1,250 mg multiple dose, cancer, fasted, median (range)) of the same molecule?
A: 3.0 (1.5–8.0) ^f h

Q: And the “Observed Tmax” value ([7]; 1,250 mg multiple dose, cancer, not fasted, median (range))?
A: 3.0 (2.6–8.0) ^f h

Q: And the “Observed Tmax” value ([7]; 1,500 mg multiple dose, cancer, fasted, median (range))?
A: 3.0 (0.0–12.2) ^f h

Q: And the “Observed Tmax” value ([7]; 1,500 mg multiple dose, cancer, not fasted, median (range))?
A: 3.4 (0.0–6.0) ^f h

Q: And the “Observed Tmax” value ([7]; 1,600 mg multiple dose, cancer, fasted, median (95 % CI))?
A: 5.1 (0.9–8.0) ^g h

Q: What about the “Observed Tmax” value ([7]; 1,800 mg multiple dose, cancer, fasted, median (95 % CI)) of the same molecule?
A: 3.9 (3.0–7.9) ^g h

Q: What about the “Observed Tmax” value ([7]; 1,800 mg single dose, cancer, fasted, median (95 % CI)) of the same molecule?
A: 3.9 (3.0–8.0) ^g h

Q: And the “central nervous system (CNS) penetration” value [8]?
A: poor central nervous system (CNS) penetration

Q: What about the “adverse reactions observed in clinical trials” value [9] of the same molecule?
A: decreased left ventricular ejection fraction, QT prolongation, hepatotoxicity, diarrhea and interstitial lung disease/pneumonitis

Q: What about the AUC(0-t) [10] of the same molecule?
A: 2.7 µM·h

Q: What about the half-life [10] of the same molecule?
A: 9.5 h

Q: For Cc1ncc2n1-c1ccc(Cl)cc1C(c1ccccc1F)=NC2 [midazolam], which microsomal intrinsic clearance (CYP3A; human liver) is on record?
A: 15800 mL/min

Q: And the microsomal intrinsic clearance (CYP3A; human small intestine)?
A: 213.7 mL/min

Q: What about the “small intestine microsomal intrinsic clearance as percent of liver” value (CYP3A; human) of the same molecule?
A: 1.35%
